From patent publication US20140094462A1, “SONIC HEDGEHOG MODULATORS” (priority 2009, published 2014)
pKd: −log10 of the molar value. Like-named read-outs stand apart in the source and are kept apart here. Blank lines part the entries; values can stand above or below the compound they belong to.

How the values were obtained:
[1] = rcm bond
ShhN protein = molecular target: T1, ShhN protein (Homo sapiens, UniProt Q15465); assay: Surface Plasmon Resonance (SPR) protein binding assay on immobilized ShhN; settings: SPR, Biacore T100, ShhN immobilized on CM4 chip, 25° C., compound 0.78 μM-25 μM; read-out: KD
T1 construct: auto-cleavage of full length Shh into an active 20 kD N-terminal fragment (ShhN); purchased R&D Systems
Procedure: Biacore™ T100 (GE Healthcare, Uppsala, Sweden) was used to perform the experiments described herein. Sensor surface preparation and interaction analyses experiments were performed at 25° C.
Control surfaces were prepared similarly without protein derivatization and were utilized as a reference surfaces for compound binding experiments.
Zero concentration blank buffer cycles were included as negative control samples.
Data analysis was carried out using Biacore T100 evaluation software v1.1.1. […] Solvent correction was then applied as described previously.

T1 sequence (Q15465 24-197 limits assumed, species assumed): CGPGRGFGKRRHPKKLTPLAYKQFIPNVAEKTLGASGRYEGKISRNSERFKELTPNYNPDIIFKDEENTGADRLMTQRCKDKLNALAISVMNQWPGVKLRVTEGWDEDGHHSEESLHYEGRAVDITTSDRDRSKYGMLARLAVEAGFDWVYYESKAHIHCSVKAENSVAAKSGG

Structure (SMILES): CC(C)(C)OC(=O)N[C@@H]1C/C=C/CCC(=O)N[C@H](c2ccccc2)COC1=O
- ring closure, yield of all isomers ([1]; from C=CCCC(=O)N[C@@H](COC(=O)[C@@H](CC=C)NC(=O)OC(C)(C)C)c1ccccc1, Grubbs II, DCM, 20.0 mM, 25.0 °C, 3.0 h): 64%

Structure (SMILES): CC(C)(C)OC(=O)N[C@@H]1C/C=C/CCC(=O)OC[C@@H]2CCCN2C1=O
- ring closure, yield of all isomers ([1]; from C=CCCC(=O)OC[C@@H]1CCCN1C(=O)[C@@H](CC=C)NC(=O)OC(C)(C)C, toluene): 19%

Structure (SMILES): CC(C)(C)[Si](C)(C)O[C@@H]1C/C=C/CCC(=O)N[C@H](c2ccccc2)COC1=O
- ring closure, yield of all isomers ([1]; from C=CCCC(=O)N[C@@H](COC(=O)[C@@H](CC=C)O[Si](C)(C)C(C)(C)C)c1ccccc1, toluene): 65%

Structure (SMILES): CC1=CC[C@@H](C)C(=O)OC[C@@H](c2ccccc2)NC(=O)CC1
- ring closure, yield of all isomers ([1]; from C=CC[C@@H](C)C(=O)OC[C@H](NC(=O)CCC(=C)C)c1ccccc1, toluene, 3 steps): 26%

Structure (SMILES): CN1C/C=C/CCC(=O)N[C@H](c2ccccc2)COC1=O
- ring closure, yield of all isomers ([1]; from C=CCCC(=O)N[C@@H](COC(=O)N(C)CC=C)c1ccccc1, DCM): 45%

Structure (SMILES): C[C@@H]1C/C=C/CCC(=O)N[C@@H](C)COC1=O
- ring closure, yield of all isomers ([1]; from C=CCCC(=O)N[C@@H](C)COC(=O)[C@H](C)CC=C, toluene, 3 steps): 35%

Structure (SMILES): C[C@@H]1C/C=C/CCC(=O)N[C@@H]2c3ccccc3C[C@H]2OC1=O
- ring closure, yield of all isomers ([1]; from C=CCCC(=O)N[C@@H]1c2ccccc2C[C@H]1OC(=O)[C@H](C)CC=C, DCM): 61.8%

Structure (SMILES): C[C@@H]1C/C=C/CCC(=O)N[C@H](c2ccccc2)CN(C)C1=O
- ring closure, yield of all isomers ([1]; from C=CCCC(=O)N[C@@H](CN(C)C(=O)[C@H](C)CC=C)c1ccccc1, toluene, 25.0 °C, 16.0 h): 68%

Structure (SMILES): C[C@@H]1C/C=C/CCC(=O)N[C@H]2CCC[C@@H]2OC1=O
- ring closure, yield of all isomers ([1]; from C=CCCC(=O)N[C@H]1CCC[C@@H]1OC(=O)[C@H](C)CC=C, toluene): 25.5%

Structure (SMILES): C[C@@H]1C/C=C/CCC(=O)N[C@H]2CCC[C@H]2OC1=O
- ring closure, yield of all isomers ([1]; from C=CCCC(=O)N[C@H]1CCC[C@H]1OC(=O)[C@H](C)CC=C, toluene): 32.4%

Structure (SMILES): C[C@@H]1C/C=C/CCC(=O)OC[C@H]2CCCN2C1=O
- ring closure, yield of all isomers ([1]; from C=CCCC(=O)OC[C@H]1CCCN1C(=O)[C@H](C)CC=C, toluene, 3 steps): 20%

Structure (SMILES): C[C@@H]1C/C=C/CCCC(=O)N[C@H](c2ccccc2)COC1=O
- ring closure, yield of all isomers ([1]; from C=CCCCC(=O)N[C@@H](COC(=O)[C@H](C)CC=C)c1ccccc1, toluene): 67%

Structure (SMILES): C[C@@H]1C/C=C/C[C@@H](NC(=O)OCC2c3ccccc3-c3ccccc32)C(=O)N[C@H](c2ccccc2)COC1=O
- ring closure, yield of all isomers ([1]; from C=CC[C@@H](C)C(=O)OC[C@H](NC(=O)[C@@H](CC=C)NC(=O)OCC1c2ccccc2-c2ccccc21)c1ccccc1, DCM): 75%

Structure (SMILES): C[C@@H]1C/C=C/C[C@H](C)C(=O)N[C@H](c2ccccn2)COC1=O
- ring closure, yield of all isomers ([1]; from C=CC[C@@H](C)C(=O)OC[C@H](NC(=O)[C@@H](C)CC=C)c1ccccn1, toluene): 89%

Structure (SMILES): C[C@@H]1C/C=C/C[C@H](C)C(=O)N[C@H](c2cccs2)COC1=O
- ring closure, yield of all isomers ([1]; from C=CC[C@@H](C)C(=O)OC[C@H](NC(=O)[C@@H](C)CC=C)c1cccs1, toluene): 74.7%

Structure (SMILES): C[C@@H]1CC=CCCC(=O)N[C@@H](c2ccccc2)COC1=O
- ring closure, yield of all isomers ([1]; from C=CCCC(=O)N[C@H](COC(=O)[C@H](C)CC=C)c1ccccc1, toluene, 25.0 °C, 16.0 h): 72%

Structure (SMILES): C[C@@H]1CC=CC[C@@H](O[Si](C)(C)C(C)(C)C)C(=O)N[C@H](c2ccccc2)COC1=O
- ring closure, yield of all isomers ([1]; from C=CC[C@@H](C)C(=O)OC[C@H](NC(=O)[C@@H](CC=C)O[Si](C)(C)C(C)(C)C)c1ccccc1, toluene): 58%

Structure (SMILES): C[C@@H]1COC(=O)C(C)(C)C/C=C/CCC(=O)N1
- ring closure, yield of all isomers ([1]; from C=CCCC(=O)N[C@H](C)COC(=O)C(C)(C)CC=C, toluene, 3 steps): 8%

Structure (SMILES): C[C@@H]1COC(=O)[C@H](C)C/C=C/CCC(=O)N1
- ring closure, yield of all isomers ([1]; from C=CCCC(=O)N[C@H](C)COC(=O)[C@H](C)CC=C, toluene, 3 steps): 38%

Structure (SMILES): C[C@@H]1[C@@H](c2ccccc2)OC(=O)CC/C=C/C[C@@H](NC(=O)OC(C)(C)C)C(=O)N1C
- ring closure, yield of all isomers ([1]; from C=CCCC(=O)O[C@H](c1ccccc1)[C@@H](C)N(C)C(=O)[C@@H](CC=C)NC(=O)OC(C)(C)C, toluene): 60%

Structure (SMILES): C[C@H]1C/C=C/CCC(=O)N[C@@H](c2ccccc2)COC1=O
- ring closure, yield of all isomers ([1]; from C=CCCC(=O)N[C@H](COC(=O)[C@@H](C)CC=C)c1ccccc1, toluene, 25.0 °C, 16.0 h): 74%

Structure (SMILES): C[C@H]1C/C=C/CCC(=O)OC[C@@H]2CCCN2C1=O
- ring closure, yield of all isomers ([1]; from C=CCCC(=O)OC[C@@H]1CCCN1C(=O)[C@@H](C)CC=C, toluene, 3 steps): 25%

Structure (SMILES): C[C@H]1[C@@H](c2ccccc2)OC(=O)CC/C=C/C[C@@H](NC(=O)OCC2c3ccccc3-c3ccccc32)C(=O)N1C
- ring closure, yield of all isomers ([1]; from C=CCCC(=O)O[C@H](c1ccccc1)[C@H](C)N(C)C(=O)[C@@H](CC=C)NC(=O)OCC1c2ccccc2-c2ccccc21, toluene): 16%

Structure (SMILES): O=C1CCC=CCN(Cc2ccc(Cl)cc2)C(=O)OC[C@@H](c2ccccc2)N1
- ring closure, yield of all isomers ([1]; from C=CCCC(=O)N[C@@H](COC(=O)N(CC=C)Cc1ccc(Cl)cc1)c1ccccc1, toluene): 25%

Structure (SMILES): CC1C/C=C/CCC(=O)N[C@H](c2ccccc2)COC1 (stereo partly drawn) [(3R,E)-11-methyl-3-phenyl-1-oxa-4-azacyclododec-8-en-5-one]
- ring closure, yield of all isomers ([1]; from C=CCCC(=O)N[C@@H](COCC(C)CC=C)c1ccccc1, toluene, 2 steps): 0.5%

- pKd (ShhN protein): < 4.00
Structure (SMILES): C[C@@H]1C/C=C/CCC(=O)O[C@H](c2ccccc2)CNC1=O [Compound BP, (2R,6R,E)-6-methyl-2-phenyl-1-oxa-4-azacyclododec-8-ene-5,12-dione]
- ring closure, yield of all isomers ([1]; from C=CCCC(=O)O[C@@H](CNC(=O)[C@H](C)CC=C)c1ccccc1, toluene): 79%

- pKd (ShhN protein): 4.00 to 6.00
Structure (SMILES): C[C@@H]1C/C=C/CC(C)(C)C(=O)N[C@H](c2ccccc2)COC1=O [Example AY, (3R,11R,E)-6,6,11-trimethyl-3-phenyl-1-oxa-4-azacyclododec-8-ene-5,12-dione]
- ring closure, yield of all isomers ([1]; from C=CC[C@@H](C)C(=O)OC[C@H](NC(=O)C(C)(C)CC=C)c1ccccc1, toluene): 81%

- pKd (ShhN protein): 4.00 to 6.00
Structure (SMILES): C[C@@H]1C/C=C/CCC(=O)O[C@H](c2ccccc2)[C@H](C)N(C)C1=O [Example BC, (2R,3S,6R,E)-3,4,6-trimethyl-2-phenyl-1-oxa-4-azacyclododec-8-ene-5,12-dione]
- ring closure, yield of all isomers ([1]; from C=CCCC(=O)O[C@H](c1ccccc1)[C@H](C)N(C)C(=O)[C@H](C)CC=C, toluene): 10%

- pKd (ShhN protein): 4.00 to 6.00
Structure (SMILES): C[C@@H]1C/C=C/CCC(=O)OC[C@@H]2CCCN2C1=O [Example BD, (9R,14aS,E)-9-methyl-4,5,8,9,12,13,14,14a-octahydro-1H-pyrrolo[2,1-c][1,4]oxaazacyclododecine-3,10-dione]
- ring closure, yield of all isomers ([1]; from C=CCCC(=O)OC[C@@H]1CCCN1C(=O)[C@H](C)CC=C, toluene): 42%

- pKd (ShhN protein): > 7.00
Structure (SMILES): O=C1CC/C=C/C[C@@H](Cc2ccc(Cl)cc2)C(=O)NC[C@@H](c2ccccc2)O1 [Example BQ, (2R,6S,E)-6-(4-chlorobenzyl)-2-phenyl-1-oxa-4-azacyclododec-8-ene-5,12-dione]
- ring closure, yield of all isomers ([1]; from C=CCCC(=O)O[C@@H](CNC(=O)[C@@H](CC=C)Cc1ccc(Cl)cc1)c1ccccc1, toluene): 51%

- pKd (ShhN protein): < 4.00
Structure (SMILES): C[C@H]1C/C=C/CCC(=O)N[C@H](c2ccccc2)COC1=O [Example BS, (3R,11S,E)-11-methyl-3-phenyl-1-oxa-4-azacyclododec-8-ene-5,12-dione]
- ring closure, yield of all isomers ([1]; from C=CCCC(=O)N[C@@H](COC(=O)[C@@H](C)CC=C)c1ccccc1, toluene): 44%

- pKd (ShhN protein): 4.00 to 6.00
Structure (SMILES): CCCC[C@@H]1COC(=O)[C@H](CC(=O)NCc2ccc(Cl)cc2)C/C=C/CCC(=O)N1 [FR, 2-((3R,11S,E)-3-butyl-5,12-dioxo-1-oxa-4-azacyclododec-8-en-11-yl)-N-(4-chlorobenzyl)acetamide]

- pKd (ShhN protein): 4.00 to 6.00
Structure (SMILES): O=C(C[C@@H]1C/C=C/CCC(=O)N[C@H](Cc2ccccc2)COC1=O)NCc1ccc(Cl)cc1 [FS, 2-((3R,11S,E)-3-benzyl-5,12-dioxo-1-oxa-4-azacyclododec-8-en-11-yl)-N-(4-chlorobenzyl)acetamide]

- pKd (ShhN protein): 4.00 to 6.00
Structure (SMILES): O=C(C[C@@H]1C/C=C/CCC(=O)N2CCC[C@H]2COC1=O)NCc1ccc(Cl)cc1 [FT, N-(4-chlorobenzyl)-2-((4S,14aS,E)-3,10-dioxo-3,4,5,8,9,10,12,13,14,14a-decahydro-1H-pyrrolo[2,1-c][1,4]oxaazacyclododecin-4-yl)acetamide]

- pKd (ShhN protein): < 4.00
Structure (SMILES): O=C(C[C@@H]1C/C=C/CCC(=O)N[C@H](C2CCCCC2)COC1=O)NCc1ccc(Cl)cc1 [FU, N-(4-chlorobenzyl)-2-((3R,11S,E)-3-cyclohexyl-5,12-dioxo-1-oxa-4-azacyclododec-8-en-11-yl)acetamide]

- pKd (ShhN protein): > 7.00
Structure (SMILES): CC(C)(C)OC(=O)C[C@@H]1C/C=C/CCC(=O)N[C@H](c2ccc(Cl)cc2)COC1=O [FV]

- pKd (ShhN protein): > 7.00
Structure (SMILES): CC(C)(C)OC(=O)C[C@@H]1C/C=C/CCC(=O)N[C@@H]2c3ccccc3C[C@@H]2OC1=O [FW, tert-butyl 2-((3S,10aR,15aS,E)-2,9-dioxo-2,3,4,7,8,9,10,10a,15,15a-decahydroindeno[2,1-b][1,4]oxaazacyclododecin-3-yl)acetate]

- pKd (ShhN protein): > 7.00
Structure (SMILES): CC(C)(C)OC(=O)C[C@@H]1C/C=C/CCC(=O)N[C@H](c2ccc(F)cc2)COC1=O [FX]

- pKd (ShhN protein): > 7.00
Structure (SMILES): COc1ccccc1[C@@H]1COC(=O)[C@H](CC(=O)OC(C)(C)C)C/C=C/CCC(=O)N1 [FY]

- pKd (ShhN protein): 4.00 to 6.00
Structure (SMILES): O=C(C[C@@H]1C/C=C/CCC(=O)N[C@H](c2ccccc2)COC1=O)NCC1CCOCC1 [FZ, 2-((3R,11S,E)-5,12-dioxo-3-phenyl-1-oxa-4-azacyclododec-8-en-11-yl)-N-((tetrahydro-2H-pyran-4-yl)methyl)acetamide]

- pKd (ShhN protein): > 7.00
Structure (SMILES): O=C1CC/C=C/CCC(=O)OC[C@@H](c2ccccc2)N1 [F]
